Assay results from patent US7196110B2, “N-substituted tricyclic 3-aminopyrazoles as inhibitors for the treatment of cell proliferative disorders” (Janssen Phamaceutica N.V., priority 2002, dated 2007).

Molecular target: T1, PDGF-receptor beta enzyme comprising the tyrosine kinase domain (Homo sapiens, UniProt P09619)
T1 construct: from amino acid 545 to 1106 of GenBank Access NO: AAA36427
Experiment: Inhibition of PDGF-receptor kinase activity (cell-free, PLC1 peptide, 33P Flashplate)
Format: biochemical
Details: PDGF-R kinase activity; for inhibition at 10 µM: compound at 10 uM, read-out: Percent Inhibition @ 10 uM; for IC50: read-out: IC50
How it was run: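 Recombinant kinase domain (aa 545–1106) phosphorylated a biotinylated PLC1 peptide with 5 μM ATP plus 33P-γ-ATP, in Tris pH 8, MgCl2, Na3VO4 and 1 mM DTT, for 60 min at 30 °C. Retained 33P was counted after washing. IC50 is the concentration halving activity versus no-inhibitor reactions.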

T1 sequence (P09619 545-1106): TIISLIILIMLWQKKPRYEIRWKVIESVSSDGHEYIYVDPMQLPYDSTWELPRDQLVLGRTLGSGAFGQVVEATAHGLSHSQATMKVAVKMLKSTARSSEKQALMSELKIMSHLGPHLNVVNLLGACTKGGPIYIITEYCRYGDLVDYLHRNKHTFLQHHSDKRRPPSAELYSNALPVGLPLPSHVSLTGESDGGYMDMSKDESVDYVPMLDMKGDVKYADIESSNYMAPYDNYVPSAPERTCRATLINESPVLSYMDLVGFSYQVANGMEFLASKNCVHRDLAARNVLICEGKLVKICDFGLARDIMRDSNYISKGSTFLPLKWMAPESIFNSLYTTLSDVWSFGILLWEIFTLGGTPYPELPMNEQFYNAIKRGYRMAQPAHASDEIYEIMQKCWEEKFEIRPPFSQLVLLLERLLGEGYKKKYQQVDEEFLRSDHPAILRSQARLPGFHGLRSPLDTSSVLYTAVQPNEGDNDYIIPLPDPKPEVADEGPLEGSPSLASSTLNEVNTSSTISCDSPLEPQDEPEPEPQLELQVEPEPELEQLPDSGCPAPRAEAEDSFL

| SMILES | inhibition at 10 µM | IC50 |
| --- | --- | --- |
| CCOC(=O)c1cccc(Nc2[nH]nc3c2Cc2cc(OC)c(OC)cc2-3)c1 [Compound 210, 3-(6,7-Dimethoxy-2,4-dihydro-indeno[1,2-c]pyrazol-3-ylamino)-benzoic acid ethyl ester] | 90% | 67.2 nM |
| COc1cc2c(cc1OC)-c1n[nH]c(Nc3ccc(F)c(C(F)(F)F)c3)c1C2 [Compound 212, (6,7-Dimethoxy-2,4-dihydro-indeno[1,2-c]pyrazol-3-yl)-(4-fluoro-3-trifluoromethyl-phenyl)-amine] | 84% | 775 nM |
| COc1cc2c(cc1OCCCN1CCN(C)CC1)Cc1c-2n[nH]c1Nc1ccc(F)c(Cl)c1 [Compound 214, (3-Chloro-4-fluoro-phenyl)-{7-methoxy-6-[3-(4-methyl-piperazin-1-yl)-propoxy]-2,4-dihydro-indeno[1,2-c]pyrazol-3-yl}-amine] | 46% | – |
| CN(C)CCCOc1ccc2c(c1)Cc1c-2n[nH]c1Nc1ccc(OC(F)(F)F)cc1 [Compound 217, [6-(3-Dimethylamino-propoxy)-2,4-dihydro-indeno[1,2-c]pyrazol-3-yl]-(4-trifluoromethoxy-phenyl)-amine] | 51% | 3480 nM |
| COc1cc2c(cc1OC)-c1n[nH]c(NCc3ccc(Cl)c(Cl)c3)c1C2 [Compound 219, (3,4-Dichloro-benzyl)-(6,7-dimethoxy-2,4-dihydro-indeno[1,2-c]pyrazol-3-yl)-amine] | 39% | – |
| COc1cc2c(cc1OC)-c1n[nH]c(NCC3CCCCC3)c1C2 [Compound 220, Cyclohexylmethyl-(6,7-dimethoxy-2,4-dihydro-indeno[1,2-c]pyrazol-3-yl)-amine] | 73% | 3290 nM |
| COc1cc2c(cc1OC)-c1n[nH]c(Nc3ccc(S(=O)(=O)C4CCNCC4)cc3)c1C2 [Compound 221, (6,7-Dimethoxy-2,4-dihydro-indeno[1,2-c]pyrazol-3-yl)-[4-(piperidine-4-sulfonyl)-phenyl]-amine] | 71% | 1600 nM |
| COc1cc2c(cc1OC)-c1n[nH]c(NCc3ccc(C)cc3)c1C2 [Compound 222, (6,7-Dimethoxy-2,4-dihydro-indeno[1,2-c]pyrazol-3-yl)-(4-methyl-benzyl)-amine] | 70% | 806 nM |
| COc1ccccc1CNc1[nH]nc2c1Cc1cc(OC)c(OC)cc1-2 [Compound 224, (6,7-Dimethoxy-2,4-dihydro-indeno[1,2-c]pyrazol-3-yl)-(2-methoxy-benzyl)-amine] | 24% | – |
| COc1cccc(CNc2[nH]nc3c2Cc2cc(OC)c(OC)cc2-3)c1 [Compound 225, (6,7-Dimethoxy-2,4-dihydro-indeno[1,2-c]pyrazol-3-yl)-(3-methoxy-benzyl)-amine] | 90% | 74.4 nM |
| COc1ccc(CNc2[nH]nc3c2Cc2cc(OC)c(OC)cc2-3)cc1 [Compound 231, (6,7-Dimethoxy-2,4-dihydro-indeno[1,2-c]pyrazol-3-yl)-(4-methoxy-benzyl)-amine] | 37% | – |
| COc1cccc(Nc2[nH]nc3c2Cc2cc(F)ccc2-3)c1 [Compound 234, (6-Fluoro-2,4-dihydro-indeno[1,2-c]pyrazol-3-yl)-(3-methoxy-phenyl)-amine] | 101% | 358 nM |
| Fc1cccc(Nc2[nH]nc3c2Cc2cc(F)ccc2-3)c1 [Compound 235, (6-Fluoro-2,4-dihydro-indeno[1,2-c]pyrazol-3-yl)-(3-fluoro-phenyl)-amine] | 86% | 211 nM |
| Fc1ccc2c(c1)Cc1c-2n[nH]c1Nc1ccc(OC(F)(F)F)cc1 [Compound 238, (6-Fluoro-2,4-dihydro-indeno[1,2-c]pyrazol-3-yl)-(4-trifluoromethoxy-phenyl)-amine] | 87% | 419 nM |
| Fc1ccc2c(c1)Cc1c-2n[nH]c1Nc1cc(C(F)(F)F)cc(C(F)(F)F)c1 [Compound 239, (3,5-Bis-trifluoromethyl-phenyl)-(6-fluoro-2,4-dihydro-indeno[1,2-c]pyrazol-3-yl)-amine] | 91% | 138 nM |
| COc1cc2c(cc1OC)C(C)c1c-2n[nH]c1Nc1ccc(F)cc1 (centres unmarked) [Compound 248, (6,7-Dimethoxy-4-methyl-2,4-dihydro-indeno[1,2-c]pyrazol-3-yl)-(4-fluoro-phenyl)-amine] | 68% | 410 nM |
| COc1cc2c(cc1OC)C(C)c1c-2n[nH]c1Nc1ccc(F)c(Cl)c1 (centres unmarked) [Compound 250, (3-Chloro-4-fluoro-phenyl)-(6,7-dimethoxy-4-methyl-2,4-dihydro-indeno[1,2-c]pyrazol-3-yl)-amine] | 88% | 223 nM |
| COc1cc2c(cc1OC)C(C)c1c-2n[nH]c1Nc1cc(F)cc(F)c1 (centres unmarked) [Compound 251, (3,5-Difluoro-phenyl)-(6,7-dimethoxy-4-methyl-2,4-dihydro-indeno[1,2-c]pyrazol-3-yl)-amine] | 84% | 322 nM |
| COc1cc2c(cc1OC)C(C)c1c-2n[nH]c1Nc1cc(F)ccc1F (centres unmarked) [Compound 252, (2,5-Difluoro-phenyl)-(6,7-dimethoxy-4-methyl-2,4-dihydro-indeno[1,2-c]pyrazol-3-yl)-amine] | 16% | – |
| COc1cc2c(cc1OC)C(C)c1c-2n[nH]c1Nc1cccc(OCc2ccccc2)c1 (centres unmarked) [Compound 254, (3-Benzyloxy-phenyl)-(6,7-dimethoxy-4-methyl-2,4-dihydro-indeno[1,2-c]pyrazol-3-yl)-amine] | 89% | 181 nM |
| COc1cc2c(cc1OC)C(C)c1c-2n[nH]c1Nc1cccc(SC)c1 (centres unmarked) [Compound 255, (6,7-Dimethoxy-4-methyl-2,4-dihydro-indeno[1,2-c]pyrazol-3-yl)-(3-methylsulfanyl-phenyl)-amine] | 90% | 162 nM |

More lines, now with the values ahead:

| inhibition at 10 µM | IC50 | SMILES |
| --- | --- | --- |
| 87% | 50 nM | COc1cc2c(cc1OC)-c1n[nH]c(Nc3cccc(SC(F)(F)F)c3)c1C2 [Compound 211, (6,7-Dimethoxy-2,4-dihydro-indeno[1,2-c]pyrazol-3-yl)-(3-trifluoromethylsulfanyl-phenyl)-amine] |
| 82% | 2.7 nM | COc1cc2c(cc1OCCCN1CCN(C)CC1)Cc1c-2n[nH]c1Nc1cccc(Cl)c1 [Compound 213, (3-Chloro-phenyl)-{7-methoxy-6-[3-(4-methyl-piperazin-1-yl)-propoxy]-2,4-dihydro-indeno[1,2-c]pyrazol-3-yl}-amine] |
| 99% | 5.7 nM | COc1cccc(Nc2[nH]nc3c2Cc2cc(OCCCN4CCN(C)CC4)c(OC)cc2-3)c1 [Compound 215, {7-Methoxy-6-[3-(4-methyl-piperazin-1-yl)-propoxy]-2,4-dihydro-indeno[1,2-c]pyrazol-3-yl}-(3-methoxy-phenyl)-amine] |
| 100% | 5.8 nM | COc1cc2c(cc1OCCCN1CCN(C)CC1)Cc1c-2n[nH]c1Nc1cccc(F)c1 [Compound 216, (3-Fluoro-phenyl)-{7-methoxy-6-[3-(4-methyl-piperazin-1-yl)-propoxy]-2,4-dihydro-indeno[1,2-c]pyrazol-3-yl}-amine] |
| 97% | 45.9 nM | COc1cc2c(cc1OC)-c1n[nH]c(NCc3ccccc3C)c1C2 [Compound 223, (6,7-Dimethoxy-2,4-dihydro-indeno[1,2-c]pyrazol-3-yl)-(2-methyl-benzyl)-amine] |
| 90% | 1.9 nM | COc1cc2c(cc1OC)-c1n[nH]c(NCc3ccccc3Cl)c1C2 [Compound 230, (2-Chloro-benzyl)-(6,7-dimethoxy-2,4-dihydro-indeno[1,2-c]pyrazol-3-yl)-amine] |
| 102% | 39.6 nM | COc1cccc(Nc2n[nH]c3c2Cc2sccc2-3)c1 [Compound 232, (5,7-Dihydro-1-thia-4,5-diaza-cyclopenta[a]pentalen-6-yl)-(3-methoxy-phenyl)-amine] |
| 82% | 5 nM | Fc1ccc2c(c1)Cc1c-2n[nH]c1Nc1cc(F)ccc1F [Compound 236, (2,5-Difluoro-phenyl)-(6-fluoro-2,4-dihydro-indeno[1,2-c]pyrazol-3-yl)-amine] |
| 88% | 50 nM | Fc1ccc2c(c1)Cc1c-2n[nH]c1Nc1ccc(C(F)(F)F)cc1 [Compound 237, (6-Fluoro-2,4-dihydro-indeno[1,2-c]pyrazol-3-yl)-(4-trifluoromethyl-phenyl)-amine] |
| 92% | 2 nM | Cc1cccc(Nc2[nH]nc3c2Cc2cc(F)ccc2-3)c1 [Compound 240, (6-Fluoro-2,4-dihydro-indeno[1,2-c]pyrazol-3-yl)-m-tolyl-amine] |
| 104% | 13 nM | COCCCOc1cc2c(cc1OC)-c1n[nH]c(Nc3cccc(F)c3)c1C2 [Compound 242, (3-Fluoro-phenyl)-[7-methoxy-6-(3-methoxy-propoxy)-2,4-dihydro-indeno[1,2-c]pyrazol-3-yl]-amine] |
| 101% | 0.2 nM | COCCCOc1cc2c(cc1OC)-c1n[nH]c(Nc3cccc(OC)c3)c1C2 [Compound 244, [7-Methoxy-6-(3-methoxy-propoxy)-2,4-dihydro-indeno[1,2-c]pyrazol-3-yl]-(3-methoxy-phenyl)-amine] |
| 87% | 1 nM | CCOc1cc2c(cc1OCC)-c1n[nH]c(Nc3cccc(OC)c3)c1C2 [Compound 245, (6,7-Diethoxy-2,4-dihydro-indeno[1,2-c]pyrazol-3-yl)-(3-methoxy-phenyl)-amine] |
| 77% | 12.1 nM | CCOc1cc2c(cc1OCC)-c1n[nH]c(Nc3ccc(F)c(Cl)c3)c1C2 [Compound 246, (3-Chloro-4-fluoro-phenyl)-(6,7-dioethoxy-2,4-dihydro-indeno[1,2-c]pyrazol-3-yl)-amine] |
